From patent publication US9585871B2, “Method for treating and curing leishmaniosis using fexinidazole” (Merial Limited, priority 2013, dated 2017)
“And” between values parts separate entries of the source, which are not always exact repeats. Identical values can stand only once.

Experiments:
Assay type in all cases: in vivo
L. infantum [1] = assay: Clinical study in dogs infected with L. infantum: overall outcome (cure, relapse, removal of animals)
Method: (§1) In a clinical study, dogs infected with L. infantum were treated with meglumine antimoniate (GLUCANTIME®, Merial) as a positive control, or FEX (Table 5). Eight blocks of two animals were formed based antibody titers and biological scores. Six dogs in each group were naturally infected by housing them in an endemic area for two years and two dogs in each group were artificially infected by intravenous administration of a known quantity of parasites recovered from the spleen of an infected dog.
The first group (FEX) was compared to the second group, which was treated with 27 mg/kg GLUCANTIME (meglumine antimoniate, or 100 mg/kg of dNMA) “GLU”), over 28 days. […]

L. infantum [2] = assay: Clinical study in dogs infected with L. infantum: Overall Biological Score; design: key: additive score of severity of hematology/chemistry changes; details: Glucantime 100 mg/kg dNMA SC or Fexinidazole 60 mg/kg PO once daily Days 0-27
Method: as §1
(§2) The first group (FEX) was compared to the second group, which was treated with 27 mg/kg GLUCANTIME (meglumine antimoniate, or 100 mg/kg of dNMA) “GLU”), over 28 days.
(§3) Variables. The Clinical Score is an additive score of various clinical signs (body condition, lymphadenopathy, splenomegaly, appetite, behavior, mucous membrane color, dermatopathology, ocular signs, digestive signs, arthropathy) evaluated before treatment and on Days 7, 14, 21, 28, 57, 184, 219, 254, 282, 310, 345, 400 and 436. The Overall Biological Score is an additive score based on the severity of changes in hematology/chemistry values (creatinine, urine protein/creatinine, Hct, globulin, ALAT), evaluated pretreatment and on Days 28, 57, and 181. The L. infantum immunofluorescent antibody titers (IFAT) were determined from samples collected before treatment and on Days 28, 57, and 181. Finally, quantitative PCR (qPCR) for L. infantum was conducted on spleen aspirates collected before treatment and on Days 28, 57, 142, 184, and 373.

L. infantum [3] = assay: Clinical study in dogs infected with L. infantum: Clinical Score; design: key: additive score of clinical signs (body condition, lymphadenopathy, etc.); details: Glucantime 100 mg/kg dNMA SC or Fexinidazole 60 mg/kg PO once daily Days 0-27
Method: as §1, §2, §3

L. infantum [4] = assay: Clinical study in dogs infected with L. infantum: qPCR on spleen aspirates; details: spleen aspirate, Glucantime 100 mg/kg dNMA SC or Fexinidazole 60 mg/kg PO once daily Days 0-27
Method: as §1, §2, §3

[5] = Day −7 (before treatment), individual dogs

meglumine antimoniate [Glucantime]
removal of animal due to deterioration (L. infantum [1]; Group 1 Block 3 dog, Glucantime 100 mg/kg dNMA SC once daily Days 0-27): ^1Dog Group 1 Block 3 removed on Day 28 due to continued deterioration | removal of animal due to toxicity (L. infantum [1]; Group 1 Block 8 dog, Glucantime 100 mg/kg dNMA SC once daily): ^2Dog Group 1 Block 8 removed on Day 20 due to GLUCANTIME toxicity | removal of animals due to lack of efficacy (L. infantum [1]; Group 1 Blocks 2, 4, 7 dogs, Glucantime 100 mg/kg dNMA SC once daily Days 0-27): ^3Dogs Group 1 Blocks 2, 4, 7 removed after Day 184 due to lack of GLUCANTIME efficacy | Overall Biological Score (L. infantum [2]; Day 28, individual dogs): 2 (2×) and 1 and 4 and 3 (2×) and 2^1 | Overall Biological Score, group average (L. infantum [2]; Day 28): 2.4 | Overall Biological Score (L. infantum [2]; Day 57, individual dogs): 1 (4×) and 4 (2×) | Overall Biological Score, group average (L. infantum [2]; Day 57, Group 1 includes D28 data of Block 3 dog carried forward): 2.0^3 | Overall Biological Score (L. infantum [2]; Day 181, individual dogs): 3 (2×) and 2 (2×) and 0 and 6 | Overall Biological Score, group average (L. infantum [2]; Day 181, Group 1 includes D28 data of Block 3 dog carried forward): 2.7 | Overall Biological Score (L. infantum [2]; Day −14 (pretreatment), individual dogs): 6 and 1 (2×) and 3 (2×) and 7 and 2 (2×) | Overall Biological Score, group average (L. infantum [2]; Day −14 (pretreatment)): 3.1 | Clinical Score, group average (L. infantum [3]; Day 7): 1.3 | Clinical Score, group average (L. infantum [3]; Day 14): 1.1 | Clinical Score, group average (L. infantum [3]; Day 21): 2.1 | Clinical Score (L. infantum [3]; Day 28, individual dogs): 0 | Clinical Score, group average (L. infantum [3]; Day 28, Group 1 includes D21 data of Block 3 dog carried forward): 1.33 | Clinical Score (L. infantum [3]; Day 57, individual dogs): 0 | Clinical Score, group average (L. infantum [3]; Day 57, Group 1 includes D21 data of Block 3 dog carried forward): 1.33 | Clinical Score (L. infantum [3]; Day 184, individual dogs): 0 | Clinical Score, group average (L. infantum [3]; Day 184): 0.0 | Clinical Score (L. infantum [3]; Day 219, individual dogs): 0 | Clinical Score, group average (L. infantum [3]; Day 219): 0.0 | Clinical Score (L. infantum [3]; Day 254, individual dogs): 3 and 0 (2×) | Clinical Score, group average (L. infantum [3]; Day 254): 1.0 | Clinical Score (L. infantum [3]; Day 282, individual dogs): 3 and 0 (2×) | Clinical Score, group average (L. infantum [3]; Day 282): 1.0 | Clinical Score (L. infantum [3]; Day 310, individual dogs): 2 and 0 (2×) | Clinical Score, group average (L. infantum [3]; Day 310): 0.7 | Clinical Score (L. infantum [3]; Day 345, individual dogs): 0 | Clinical Score, group average (L. infantum [3]; Day 345): 0.0 | Clinical Score (L. infantum [3]; Day 400, individual dogs): 1 and 0 (2×) | Clinical Score, group average (L. infantum [3]; Day 400): 0.3 | Clinical Score (L. infantum [3]; Day 436, individual dogs): 4 and 0 (2×) | Clinical Score, group average (L. infantum [3]; Day 436): 1.3 | Clinical Score (L. infantum [3]; [5]): 2 (3×) and 0 (4×) and 3 | Clinical Score, group average (L. infantum [3]; Day −7 (before treatment)): 1.1 | qPCR for L. infantum (L. infantum [4]; Day 28, individual dogs): 4.04 log copies/mL and 3.73 log copies/mL and 5.93 log copies/mL and 5.63^3 log copies/mL and BLOQ^1 (BLOQ = Below Level of Quantification = < log 3.64 copies/mL spleen aspirate) and 5.77 log copies/mL and 6.40^2 log copies/mL and 5.81 log copies/mL | qPCR for L. infantum (L. infantum [4]; Day 57, individual dogs): BLOQ (BLOQ = Below Level of Quantification = < log 3.64 copies/mL spleen aspirate) (3×) and 4.93 log copies/mL and 5.14 log copies/mL and 4.78 log copies/mL | qPCR for L. infantum (L. infantum [4]; Day 142, individual dogs): BLOQ (BLOQ = Below Level of Quantification = < log 3.64 copies/mL spleen aspirate) (3×) and 4.73 log copies/mL and 5.57 log copies/mL and 3.94 log copies/mL | qPCR for L. infantum (L. infantum [4]; Day 184, individual dogs): BLOQ (BLOQ = Below Level of Quantification = < log 3.64 copies/mL spleen aspirate) (2×) and 3.97 log copies/mL and 5.53 log copies/mL and 7.01 log copies/mL and 5.62 log copies/mL | qPCR for L. infantum (L. infantum [4]; Day 373, individual dogs): BLOQ (BLOQ = Below Level of Quantification = < log 3.64 copies/mL spleen aspirate) and 5.23 log copies/mL and 3.83 log copies/mL | qPCR for L. infantum (L. infantum [4]; [5]): 5.81 log copies/mL and 4.38 log copies/mL and 6.40 log copies/mL and 5.10 log copies/mL and 5.12 log copies/mL and 6.87 log copies/mL and 6.17 log copies/mL and 6.70 log copies/mL
